Laboratory results published in patent US20230233569A1 (Revolution Medicines, Inc., priority 2020, published 2023).

Legend:
KRAS WT = KRAS WT (Homo sapiens, UniProt P01116+P62937); assay: Disruption of BRAF RBD interaction with Ras (FRET / MOA assay, with Cyclophilin A); type: biochemical; details: KRAS WT; read-out: KRAS WT FRET data IC50
In short: (§1)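 First, compounds at a ten-point threefold dilution series (highest final concentration 30 μM) were incubated with nucleotide-loaded K-Ras, Cyclophilin A and BRAF RBD for 3 h at 25 °C. Next, detection antibodies were added for 1.5 h. Finally, IC50 was calculated from TR-FRET ratio decreases against DMSO controls.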

KRAS G13C = KRAS G13C (Homo sapiens, UniProt P01116+P62937, G13C); assay: as above; type: biochemical; details: read-out: KRAS G13C FRET data, IC50
In short: as §1

KRAS G12V = KRAS G12V (Homo sapiens, UniProt P01116+P62937, G12V); assay: as above; type: biochemical; details: KRAS G12V; read-out: KRAS G12V FRET data IC50
In short: as §1

KRAS G12S = KRAS G12S (Homo sapiens, UniProt P01116+P62937, G12S); assay: as above; type: biochemical; details: read-out: KRAS G12S FRET data, IC50
In short: as §1

KRAS G12C = KRAS G12C (Homo sapiens, UniProt P01116+P62937, G12C); assay: as above; type: biochemical; details: read-out: KRAS G12C FRET data, IC50
In short: as §1

KRAS G13D = KRAS G13D (Homo sapiens, UniProt P01116+P62937, G13D); assay: as above; type: biochemical; details: KRAS G13D; read-out: KRAS G13D FRET data IC50
In short: as §1

NRAS G12C = NRAS G12C (Homo sapiens, UniProt P01111+P62937, G12C); assay: as above; type: biochemical; details: NRAS G12C; read-out: NRAS G12C FRET data IC50
KRAS G12D = KRAS G12D (Homo sapiens, UniProt P01116+P62937, G12D); assay: as above; type: biochemical; details: read-out: KRAS G12D FRET data, IC50
In short: as §1

KRAS Q61H = KRAS Q61H (Homo sapiens, UniProt P01116+P62937, Q61H); assay: as above; type: biochemical; details: KRAS Q61H; read-out: KRAS Q61H FRET data IC50
In short: (§2)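 IC50 reflects compound-driven Ras:Cyclophilin A ternary complex displacing BRAF RBD, read as lowered TR-FRET ratio relative to DMSO after Eu anti-His (10 nM) and APC anti-GST (50 nM) detection for 1.5 h. Prior incubation 3 h, 25° C, with 12.5 nM GMPPNP-loaded Ras, 50 nM BRAF RBD, 25 μM Cyclophilin A; top compound 30 μM.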

NRAS Q61K = NRAS Q61K (Homo sapiens, UniProt P01111+P62937, Q61K); assay: as above; type: biochemical; details: NRAS Q61K; read-out: NRAS Q61K FRET data IC50
In short: as §2

NRAS WT = NRAS WT (Homo sapiens, UniProt P01111+P62937); assay: as above; type: biochemical; details: NRAS WT; read-out: NRAS WT FRET data IC50
In short: as §2

NRAS Q61R = NRAS Q61R (Homo sapiens, UniProt P01111+P62937, Q61R); assay: as above; type: biochemical; details: NRAS Q61R; read-out: NRAS Q61R FRET data IC50
In short: as §2

NCI-H358 (K-Ras G12C) = assay: CellTiter-Glo cell viability assay, 5-day treatment; type: cell-based; details: Homo sapiens, NCI-H358, 120 h, 5-day treatment; read-out: H358 Cell Viability assay data (K-Ras G12C, IC50)
In short: (§3)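 Compounds were dispensed directly onto seeded cells and incubated for 5 days, then plates were equilibrated to room temperature for about 30 minutes before luminescence reading. Signals were expressed as percent of the mean DMSO control and fitted with a four-parameter logistic curve.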

Capan-1 (K-Ras G12V) = assay: as above; type: cell-based; details: Homo sapiens, CAPAN-1, 120 h, 5-day treatment; read-out: Capan-1 Cell Viability assay data (K-Ras G12V, IC50)
In short: as §3

KRAS G13C, sequence (P01116 1-169 isoform P01116-2 G13C): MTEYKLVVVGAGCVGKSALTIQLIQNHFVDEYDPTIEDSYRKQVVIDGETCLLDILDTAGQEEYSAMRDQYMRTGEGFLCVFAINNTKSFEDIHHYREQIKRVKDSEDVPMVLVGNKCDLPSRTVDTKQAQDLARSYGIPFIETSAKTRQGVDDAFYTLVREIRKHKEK
KRAS G13C, sequence (P62937 whole entry): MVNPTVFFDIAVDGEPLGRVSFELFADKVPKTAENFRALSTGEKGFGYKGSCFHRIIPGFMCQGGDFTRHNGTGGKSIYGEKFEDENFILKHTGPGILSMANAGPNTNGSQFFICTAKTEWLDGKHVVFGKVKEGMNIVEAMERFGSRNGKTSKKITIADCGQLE
KRAS G12D, sequence (P01116 1-169 isoform P01116-2 G12D limits assumed): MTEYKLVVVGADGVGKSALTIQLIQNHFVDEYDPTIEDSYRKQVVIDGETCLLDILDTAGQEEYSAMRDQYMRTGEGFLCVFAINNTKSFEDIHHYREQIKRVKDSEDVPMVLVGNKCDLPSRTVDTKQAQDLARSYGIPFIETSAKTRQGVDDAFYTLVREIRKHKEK
KRAS G12D, sequence (P62937 whole entry): as the sequence (P62937 whole entry) above
KRAS G13D, sequence (P01116 1-169 isoform P01116-2 G13D limits assumed): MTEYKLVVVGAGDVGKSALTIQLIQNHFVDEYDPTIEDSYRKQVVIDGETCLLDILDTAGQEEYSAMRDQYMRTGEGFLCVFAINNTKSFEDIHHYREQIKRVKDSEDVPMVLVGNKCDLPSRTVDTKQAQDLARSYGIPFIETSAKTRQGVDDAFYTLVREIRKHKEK
KRAS G13D, sequence (P62937 whole entry): as the sequence (P62937 whole entry) above
KRAS G12C, sequence (P01116 1-169 isoform P01116-2 G12C): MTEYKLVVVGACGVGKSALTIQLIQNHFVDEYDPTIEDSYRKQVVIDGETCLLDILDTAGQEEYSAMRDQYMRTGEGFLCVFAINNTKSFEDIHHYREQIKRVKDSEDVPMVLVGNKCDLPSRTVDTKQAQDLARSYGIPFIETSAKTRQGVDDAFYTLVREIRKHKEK
KRAS G12C, sequence (P62937 whole entry): as the sequence (P62937 whole entry) above
NRAS Q61K, sequence (P01111 whole entry Q61K): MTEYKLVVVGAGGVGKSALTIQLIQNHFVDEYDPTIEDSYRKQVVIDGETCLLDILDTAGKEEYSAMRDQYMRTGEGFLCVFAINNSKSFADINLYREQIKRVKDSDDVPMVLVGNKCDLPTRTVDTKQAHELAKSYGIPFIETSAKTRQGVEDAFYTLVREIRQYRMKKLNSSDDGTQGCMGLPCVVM
NRAS Q61K, sequence (P62937 whole entry): as the sequence (P62937 whole entry) above
KRAS G12V, sequence (P01116 1-169 isoform P01116-2 G12V limits assumed): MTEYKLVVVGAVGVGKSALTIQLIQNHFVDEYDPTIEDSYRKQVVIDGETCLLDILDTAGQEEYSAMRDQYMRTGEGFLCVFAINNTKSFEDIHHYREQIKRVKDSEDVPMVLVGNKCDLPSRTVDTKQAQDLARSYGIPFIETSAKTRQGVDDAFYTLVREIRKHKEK
KRAS G12V, sequence (P62937 whole entry): as the sequence (P62937 whole entry) above
NRAS WT, sequence (P01111 whole entry): as the sequence (P01111 whole entry Q61K) above, with K61Q counted along it
NRAS WT, sequence (P62937 whole entry): as the sequence (P62937 whole entry) above
KRAS G12S, sequence (P01116 1-169 isoform P01116-2 G12S limits assumed): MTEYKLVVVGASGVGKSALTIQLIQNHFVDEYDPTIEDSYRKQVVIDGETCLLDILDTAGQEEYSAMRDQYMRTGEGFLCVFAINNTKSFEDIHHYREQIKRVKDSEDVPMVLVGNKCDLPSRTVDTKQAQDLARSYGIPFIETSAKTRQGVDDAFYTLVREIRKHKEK
KRAS G12S, sequence (P62937 whole entry): as the sequence (P62937 whole entry) above
NRAS Q61R, sequence (P01111 whole entry Q61R): as the sequence (P01111 whole entry Q61K) above, with K61R counted along it
NRAS Q61R, sequence (P62937 whole entry): as the sequence (P62937 whole entry) above
KRAS WT, sequence (P01116 1-169 isoform P01116-2 limits assumed): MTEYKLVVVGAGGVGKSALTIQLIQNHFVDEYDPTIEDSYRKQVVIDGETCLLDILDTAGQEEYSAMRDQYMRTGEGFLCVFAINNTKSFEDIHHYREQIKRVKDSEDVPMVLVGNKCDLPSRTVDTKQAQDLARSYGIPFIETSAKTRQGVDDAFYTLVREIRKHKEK
KRAS WT, sequence (P62937 whole entry): as the sequence (P62937 whole entry) above
KRAS Q61H, sequence (P01116 1-169 isoform P01116-2 Q61H limits assumed): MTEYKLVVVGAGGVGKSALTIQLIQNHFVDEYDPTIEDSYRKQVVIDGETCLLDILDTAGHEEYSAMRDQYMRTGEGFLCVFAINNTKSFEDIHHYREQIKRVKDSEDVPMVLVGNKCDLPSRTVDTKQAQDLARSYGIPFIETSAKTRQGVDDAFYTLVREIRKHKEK
KRAS Q61H, sequence (P62937 whole entry): as the sequence (P62937 whole entry) above
NRAS G12C, sequence (P01111 whole entry G12C): as the sequence (P01111 whole entry Q61K) above, with G12C, K61Q counted along it
NRAS G12C, sequence (P62937 whole entry): as the sequence (P62937 whole entry) above

Row | SMILES | IC50 (KRAS WT) [µM] | IC50 (KRAS G13C) [µM] | IC50 (KRAS G12V) [µM] | IC50 (KRAS G12S) [µM] | IC50 (KRAS G12C) [µM] | IC50 (KRAS G13D) [µM] | IC50 (NRAS G12C) [µM] | IC50 (KRAS G12D) [µM] | IC50 (KRAS Q61H) [µM] | IC50 (NRAS Q61K) [µM] | IC50 (NRAS WT) [µM] | IC50 (NRAS Q61R) [µM] | IC50 (NCI-H358 (K-Ras G12C)) [µM] | IC50 (Capan-1 (K-Ras G12V)) [µM]
1 | CCn1c(-c2cccnc2[C@H](C)OC)c2c3cc(ccc31)-c1csc(n1)C[C@H](NC(=O)[C@H](C(C)C)N(C)C(=O)N1CCC13CN(C)C3)C(=O)N1CCC[C@H](N1)C(=O)OCC(C)(C)C2 [Example A274] | 0.01 to 0.1 | 0.1 to 1 | 0.1 to 1 | 0.1 to 1 | 0.01 to 0.1 | 0.1 to 1 | 0.01 to 0.1 | 0.1 to 1 | 0.01 to 0.1 | 0.1 to 1 | 0.01 to 0.1 | 0.1 to 1 | 0.1 to 1 | 0.1 to 1
2 | CCn1c(-c2cccnc2[C@H](C)OC)c2c3cc(ccc31)-c1csc(n1)C[C@H](NC(=O)[C@H](C(C)C)N(C)C(=O)N(C)[C@@H]1CCCN(C)C1)C(=O)N1CCC[C@H](N1)C(=O)OCC(C)(C)C2 [Example A587] | 0.1 to 1 | 0.1 to 1 | 1 to 10 | 0.1 to 1 | 0.1 to 1 | 0.1 to 1 | 0.1 to 1 | 0.1 to 1 | 0.1 to 1 | 0.1 to 1 | 0.1 to 1 | 0.1 to 1 | 0.01 to 0.1 | 0.01 to 0.1
3 | CCn1c(-c2cccnc2[C@H](C)OC)c2c3cc(ccc31)-c1csc(n1)C[C@H](NC(=O)[C@H](C(C)C)N(C)C(=O)N1CC3CCN(C)CC31)C(=O)N1CCC[C@H](N1)C(=O)OCC(C)(C)C2 (stereo partly drawn) [Example A539] | 1 to 10 | 1 to 10 | 1 to 10 | 1 to 10 | 1 to 10 | 1 to 10 | 0.1 to 1 | 1 to 10 | 1 to 10 | 1 to 10 | 1 to 10 | 1 to 10 | 0.1 to 1 | 0.1 to 1
4 | CCn1c(-c2cccnc2[C@H](C)OC)c2c3cc(ccc31)-c1csc(n1)C[C@H](NC(=O)[C@H](C(C)C)N(C)C(=O)N1CC(NC)C1)C(=O)N1CCC[C@H](N1)C(=O)OCC(C)(C)C2 (atropisomer, axis not shown) [Example A337] | 0.1 to 1 | 0.1 to 1 | 0.1 to 1 | 0.1 to 1 | 0.1 to 1 | 0.1 to 1 | 0.1 to 1 | 1 to 10 | 0.1 to 1 | 0.01 to 0.1 | 0.1 to 1 | 0.1 to 1 | 0.01 to 0.1 | 0.1 to 1
5 | CCn1c(-c2cccnc2[C@H](C)OC)c2c3cc(ccc31)-c1csc(n1)C[C@H](NC(=O)[C@H](C(C)C)N(C)C(=O)N1CC[C@]3(CCN(C)C3=O)C1)C(=O)N1CCC[C@H](N1)C(=O)OCC(C)(C)C2 (single isomer, unassigned) [Example A461] | 0.1 to 1 | 1 to 10 | 1 to 10 | 1 to 10 | 0.1 to 1 | 1 to 10 | 0.1 to 1 | 1 to 10 | 0.1 to 1 | 0.1 to 1 | 1 to 10 | 0.1 to 1 | 0.1 to 1 | 0.1 to 1
6 | CCn1c(-c2cccnc2[C@H](C)OC)c2c3cc(ccc31)-c1csc(n1)C[C@H](NC(=O)[C@H]1C[C@@H]1C)C(=O)N1CCC[C@H](N1)C(=O)OCC(C)(C)C2 [Example A286, (1S,2S)—N-((6^3S,4S,Z)-1^1-ethyl-1^2-(2-((S)-1-methoxyethyl)pyridin-3-yl)-10,10-dimethyl-5,7-dioxo-6^1,6^2,6^3,6^4,6^5,6^6-hexahydro-1^1H-8-oxa-2(4,2)-thiazola-1(5,3)-indola-6(1,3)-pyridazinacycloundecaphane-4-yl)-2-methylcyclopropane-1-carboxamide] | 0.1 to 1 | 0.1 to 1 | 0.1 to 1 | 0.1 to 1 | 0.1 to 1 | 0.1 to 1 | 0.1 to 1 | 0.1 to 1 | 0.1 to 1 | 0.1 to 1 | 0.1 to 1 | 0.1 to 1 | 0.01 to 0.1 | 0.1 to 1
7 | CCn1c(-c2cccnc2[C@H](C)OC)c2c3cc(ccc31)-c1csc(n1)C[C@H](NC(=O)[C@H](C(C)C)N(C)C(=O)N1CCN3CCOC[C@H]3C1)C(=O)N1CCC[C@H](N1)C(=O)OCC(C)(C)C2 [Example A548] | 0.1 to 1 | 0.1 to 1 | 0.1 to 1 | 1 to 10 | 0.1 to 1 | 1 to 10 | 0.1 to 1 | 1 to 10 | 0.1 to 1 | 0.1 to 1 | 0.1 to 1 | 0.1 to 1 | 0.01 to 0.1 | 0.01 to 0.1
8 | CCn1c(-c2cccnc2[C@H](C)OC)c2c3cc(ccc31)-c1csc(n1)C[C@H](NC(=O)[C@H](C(C)C)N(C)C(=O)N1CC[C@@H]1CN(C)C)C(=O)N1CCC[C@H](N1)C(=O)OCC(C)(C)C2 [Example A502] | 0.1 to 1 | 0.1 to 1 | 1 to 10 | 0.1 to 1 | 0.1 to 1 | 0.1 to 1 | 0.1 to 1 | 0.1 to 1 | 0.01 to 0.1 | 0.1 to 1 | 0.1 to 1 | 0.1 to 1 | 0.01 to 0.1 | 0.1 to 1
9 | CCn1c(-c2cccnc2[C@H](C)OC)c2c3cc(ccc31)-c1csc(n1)C[C@H](NC(=O)[C@H](C(C)C)N(C)C(=O)N1C[C@H](C)N(C)C[C@@H]1C)C(=O)N1CCC[C@H](N1)C(=O)OCC(C)(C)C2 [Example A283] | 0.1 to 1 | 1 to 10 | 1 to 10 | 1 to 10 | 0.1 to 1 | 1 to 10 | 0.1 to 1 | 1 to 10 | 0.1 to 1 | 0.1 to 1 | 0.1 to 1 | 0.1 to 1 | 0.1 to 1 | 0.1 to 1
